Data taken from patent US6653334B1, “Benzoxazole compound and pharmaceutical composition containing the same” (Kowa Co., Ltd., priority 2002, dated 2003).

Key:
Format in all cases: cell-based
[1] = target: T1, hPPARδ (Homo sapiens, UniProt Q03181); experiment: PPAR transfection (luciferase reporter) assay in COS cells, hPPARδ; conditions: agonist activity, transiently transfected COS cells, 16 hours incubation; read-out: hPPAR; EC50 δ
T1 construct: expressed in transfected cells; host or cells: COS cells (Cercopithecus aethiops kidney)
T1 sequence (Q03181 1-441): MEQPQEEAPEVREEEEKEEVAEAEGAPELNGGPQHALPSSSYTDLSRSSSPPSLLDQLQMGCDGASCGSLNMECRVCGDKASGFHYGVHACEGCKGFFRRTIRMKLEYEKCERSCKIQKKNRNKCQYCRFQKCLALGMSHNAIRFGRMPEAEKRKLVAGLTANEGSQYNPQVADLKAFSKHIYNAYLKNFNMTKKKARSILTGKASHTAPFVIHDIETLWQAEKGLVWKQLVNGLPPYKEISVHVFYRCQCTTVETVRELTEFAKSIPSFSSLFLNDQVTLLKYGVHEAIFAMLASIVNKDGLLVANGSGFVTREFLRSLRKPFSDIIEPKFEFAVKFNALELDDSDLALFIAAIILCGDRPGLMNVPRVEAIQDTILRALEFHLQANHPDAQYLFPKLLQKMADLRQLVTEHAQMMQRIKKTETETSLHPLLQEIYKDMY

[2] = target: T2, hPPARγ (Homo sapiens, UniProt P37231); experiment: PPAR transfection (luciferase reporter) assay in COS cells, hPPARγ; conditions: agonist activity, transiently transfected COS cells, 16 hours incubation; read-out: hPPAR; EC50 γ
T2 construct: expressed in transfected cells; host or cells: COS cells (Cercopithecus aethiops kidney)
T2 sequence (P37231 1-505): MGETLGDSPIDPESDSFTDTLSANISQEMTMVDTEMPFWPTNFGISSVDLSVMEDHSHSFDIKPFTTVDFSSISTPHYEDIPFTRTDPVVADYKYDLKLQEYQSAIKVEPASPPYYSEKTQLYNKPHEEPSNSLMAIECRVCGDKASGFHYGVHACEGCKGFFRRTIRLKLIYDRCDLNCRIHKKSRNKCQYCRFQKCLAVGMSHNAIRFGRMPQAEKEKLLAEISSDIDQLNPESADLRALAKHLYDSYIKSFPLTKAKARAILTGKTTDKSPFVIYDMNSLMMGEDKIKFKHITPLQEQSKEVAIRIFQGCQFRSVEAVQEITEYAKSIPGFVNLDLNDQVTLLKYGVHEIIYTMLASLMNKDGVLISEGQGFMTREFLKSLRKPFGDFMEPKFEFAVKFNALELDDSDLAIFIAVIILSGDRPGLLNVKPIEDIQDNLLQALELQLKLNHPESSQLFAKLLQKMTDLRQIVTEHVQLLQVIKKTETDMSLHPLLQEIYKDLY

[3] = target: T3, hPPARα (Homo sapiens, UniProt Q07869); experiment: PPAR transfection (luciferase reporter) assay in COS cells, hPPARα; conditions: agonist activity, transiently transfected COS cells, 16 hours incubation; read-out: hPPAR; EC50 α
T3 construct: expressed in transfected cells; host or cells: COS cells (Cercopithecus aethiops kidney)
T3 sequence (Q07869 1-468): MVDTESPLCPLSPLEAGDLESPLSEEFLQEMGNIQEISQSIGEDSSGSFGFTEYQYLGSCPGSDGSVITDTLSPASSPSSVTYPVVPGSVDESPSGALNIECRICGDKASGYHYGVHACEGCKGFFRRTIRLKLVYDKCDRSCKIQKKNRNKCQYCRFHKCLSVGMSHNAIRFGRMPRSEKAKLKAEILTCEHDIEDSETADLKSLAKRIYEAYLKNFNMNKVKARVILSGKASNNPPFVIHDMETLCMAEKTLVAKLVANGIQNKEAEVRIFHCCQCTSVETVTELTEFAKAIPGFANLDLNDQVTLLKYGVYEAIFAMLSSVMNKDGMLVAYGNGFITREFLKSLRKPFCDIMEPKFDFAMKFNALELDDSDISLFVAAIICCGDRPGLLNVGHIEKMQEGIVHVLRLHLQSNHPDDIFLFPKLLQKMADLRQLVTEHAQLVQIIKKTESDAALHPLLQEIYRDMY

SMILES	EC50 [1] [nM]	EC50 [2] [nM]	EC50 [3] [nM]
CCCCCCCCN(Cc1cccc(OC(C)(C)C(=O)O)c1)c1nc2ccccc2o1 [Example 6, 2-[3-[[N-(Benzoxazol-2-yl)-N-n-octyl]aminomethyl]phenoxy]-2-methylpropionic Acid]	> 10000	200	10
CC(C)(Oc1ccc(CN(Cc2cccc3ccccc23)c2nc3ccccc3o2)cc1)C(=O)O [Example 12, 2-[4-[[N-(Benzoxazol-2-yl)-N-(naphth-1-ylmethyl)]aminomethyl]phenoxy]-2-methylpropionic Acid]	500	100	3
CC(C)(Oc1ccc(CN(Cc2ccccc2[N+](=O)[O-])c2nc3ccccc3o2)cc1)C(=O)O [Example 29, 2-[4-[[N-(Benzoxazol-2-yl)-N-(2-nitrobenzyl)]aminomethyl]phenoxy]-2-methylpropionic Acid]	> 10000	> 10000	100
CN(C)c1ccc(CN(Cc2cccc(OC(C)(C)C(=O)O)c2)c2nc3ccccc3o2)cc1 [Example 41, 2-[3-[[N-(Benzoxazol-2-yl)-N-(4-dimethylaminobenzyl)]aminomethyl]phenoxy]-2-methylpropionic Acid]	1800	200	10
CCCCCCCN(Cc1cccc(OCC(=O)O)c1)c1nc2ccccc2o1 [Example 46, 3-[[N-(Benzoxazol-2-yl)-N-n-heptyl]aminomethyl]phenoxyacetic Acid]	1100	400	10
CCCCCCCCN(Cc1cccc(OCC(=O)O)c1)c1nc2ccccc2o1 [Example 48, 3-[[N-(Benzoxazol-2-yl)-N-n-octyl]aminomethyl]phenoxyacetic Acid]	4500	700	10
CCC(Oc1cccc(CN(CCCc2ccccc2)c2nc3ccccc3o2)c1)C(=O)O (stereo not drawn) [Example 55, 2-[3-[[N-(Benzoxazol-2-yl)-N-(3-phenylpropyl)]aminomethyl]phenoxy]butyric Acid]	600	100	2
CCC(Oc1cccc(CN(CCCc2ccc(Cl)cc2)c2nc3ccccc3o2)c1)C(=O)O (stereo not drawn) [Example 56, 2-[3-[[N-(Benzoxazol-2-yl)-N-(3-(4-chlorophenyl)propyl)]aminomethyl]phenoxy]butyric Acid]	1000	100	1
CCCCCCCCN(Cc1cccc(OC(CC)C(=O)O)c1)c1nc2ccccc2o1 (stereo not drawn) [Example 59, 2-[3-[[N-(Benzoxazol-2-yl)-N-n-octyl]aminomethyl]phenoxy]butyric Acid]	> 10000	100	3
CC(Oc1cccc(CN(CCCc2ccc(Cl)cc2)c2nc3ccccc3o2)c1)C(=O)O (stereo not drawn) [Example 63, 2-[3-[[N-(Benzoxazol-2-yl)-N-(3-(4-chlorophenyl)propyl)]aminomethyl]phenoxy]propionic Acid]	900	100	2
CCCCCCCCN(Cc1cccc(OC(C)C(=O)O)c1)c1nc2ccccc2o1 (stereo not drawn) [Example 69, 2-[3-[[N-(Benzoxazol-2-yl)-N-n-octyl]aminomethyl]phenoxy]propionic Acid]	> 10000	200	0.3
CC(Oc1cccc(CN(CCCc2ccccc2)c2nc3ccccc3o2)c1)C(=O)O (stereo not drawn) [Example 70, 2-[3-[[N-(Benzoxazol-2-yl)-N-(3-phenylpropyl)]aminomethyl]phenoxy]propionic Acid]	> 10000	400	1
CCCN(Cc1cccc(OC(C)C(=O)O)c1)c1nc2ccccc2o1 (stereo not drawn) [Example 74, 2-[3-[[N-(Benzoxazol-2-yl)-N-n-propyl]aminomethyl]phenoxy]propionic Acid]	> 10000	> 10000	100
CCN(CCCc1ccc(OC(C)(C)C(=O)O)cc1)c1nc2ccccc2o1 [Example 114, 2-[4-[3-[N-(Benzoxazol-2-yl)-N-ethyl]aminopropyl]phenoxy]-2-methylpropionic Acid]	> 10000	400	10
CC#CCN(CCCc1cccc(OC(C)(C)C(=O)O)c1)c1nc2ccccc2o1 [Example 121, 2-[3-[3-[N-(Benzoxazol-2-yl)-N-(2-butynyl)]aminopropyl]phenoxy]-2-methylpropionic Acid]	> 10000	100	4
CCCN(CCCc1ccc(OC(C)(C)C(=O)O)cc1)c1nc2ccccc2o1 [Example 132, 2-[4-[3-[N-(Benzoxazol-2-yl)-N-n-propyl]aminopropyl]phenoxy]-2-methylpropionic Acid]	> 10000	2000	30
CC(C)N(CCCc1ccc(OC(C)(C)C(=O)O)cc1)c1nc2ccccc2o1 [Example 133, 2-[4-[3-[N-(Benzoxazol-2-yl)-N-isopropyl]aminopropyl]phenoxy]-2-methylpropionic Acid]	3000	300	10
CC(C)(Oc1cccc(CN(Cc2cccc3ccccc23)c2nc3ccccc3o2)c1)C(=O)O [Example 135, 2-[3-[[N-(Benzoxazol-2-yl)-N-(naphth-1-ylmethyl)]aminomethyl]phenoxy]-2-methylpropionic Acid]	> 10000	> 10000	10
CCCCCCCCN(CCCc1ccccc1OC(C)(C)C(=O)O)c1nc2ccccc2o1 [Example 155, 2-[2-[3-[N-(Benzoxazol-2-yl)-N-n-octyl]aminopropyl]phenoxy]-2-methylpropionic Acid]	300	500	10
CC(C)(Oc1cccc(CN(Cc2ccc(Cl)cc2)c2nc3ccccc3o2)c1)C(=O)O [compound 1]	> 10000	200	10
